Laboratory results reported in article PMC7403315, “Cyclic peptide FXII inhibitor provides safe anticoagulation in a thrombosis model and in artificial lungs” (Nature Communications, 2020).
Like-named read-outs stand apart in the source and are kept apart here. Starred links: 1 amine or outer side, 2 acyl side, 3 side chain; linkers in the order of their positions; H or OH if unused. Positions of bridges follow the written chain, without caps; N, C: chain ends. Non-standard residues stand in square brackets, D forms with d. Residues, ends and D or L forms follow the SMILES beside them. TATA = O=C(CC[*:1])N1CN(C(=O)CC[*:2])CN(C(=O)CC[*:3])C1; Phe(4-F) = N[C@@H](Cc1ccc(F)cc1)C(=O)O; β3hR = N=C(N)NCCC[C@H](N)CC(=O)O

How the values were obtained:
recombinant human FXIIa = biological target: T1, recombinant human FXIIa (Homo sapiens, UniProt P00748); assay: Inhibition of recombinant FXIIa (rFXIIa); format: biochemical; details: for remaining activity at 0.001 µM: peptide 1 nM; for remaining activity at 0.002 µM: peptide 2 nM
T1 construct: made in house; host or cells: CHO cells
T1 sequence (P00748 373-615 limits assumed): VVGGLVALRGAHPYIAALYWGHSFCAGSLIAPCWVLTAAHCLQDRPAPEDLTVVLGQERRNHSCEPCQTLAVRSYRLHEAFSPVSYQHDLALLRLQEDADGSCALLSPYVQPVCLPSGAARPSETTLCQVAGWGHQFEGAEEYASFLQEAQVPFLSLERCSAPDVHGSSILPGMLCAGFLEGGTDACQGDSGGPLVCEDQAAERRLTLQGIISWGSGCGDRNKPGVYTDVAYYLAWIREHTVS
T1 sequence (P00748 20-372 limits assumed): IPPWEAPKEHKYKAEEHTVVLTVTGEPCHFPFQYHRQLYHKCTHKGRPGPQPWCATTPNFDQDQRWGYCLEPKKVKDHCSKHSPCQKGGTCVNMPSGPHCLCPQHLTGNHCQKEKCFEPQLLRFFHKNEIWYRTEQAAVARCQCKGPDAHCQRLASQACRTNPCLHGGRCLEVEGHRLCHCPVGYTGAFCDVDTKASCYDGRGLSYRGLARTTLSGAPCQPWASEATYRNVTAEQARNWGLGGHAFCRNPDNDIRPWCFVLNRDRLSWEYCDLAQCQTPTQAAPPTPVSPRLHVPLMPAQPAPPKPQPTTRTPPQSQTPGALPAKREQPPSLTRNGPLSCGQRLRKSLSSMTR
Excerpt: The protein sequences for human, rabbit and pig factor XII were taken from the following database entries: human FXII: UniProtKB - P00748; rabbit FXII: NCBI RefSeq - XP_008253687.1; pig FXII: UniProtKB - O97507. The sequences are shown in the Supplementary Methods. DNA encoding the full-length proteins were ordered from Eurofins Genomics. The codons in these sequences were optimized for mammalian expression using the codon optimization tool from Integrated DNA Technologies (IDT). In addition to the FXII gene, the ordered DNA sequences encode a C-terminal GSGS-linker, a His6-tag and a stop codon, and they are flanked by NheI (GCTAGC) and a HindIII (AAGCTT) restriction sites. The entire DNA sequences are provided in the supporting materials. The DNA sequences were cloned into the pEXPR-IBA42 vector downstream of a BM40 signal sequence for secreted expression in mammalian cells. The ligated vector was transformed into DH5 alpha electrocompetent E. coli cells. Plasmid DNA from single clones was sequenced by Sanger sequencing.
1.5 mg plasmid DNA was transfected into 500 ml CHO cells (Thermo Fisher Scientific) in cell suspension culture using polyethylenimine (PEI). Cells were incubated for seven days at 37 °C, 5% CO2 under shaking conditions. The cells were removed by centrifugation and the secreted protein was purified from the supernatant using a nickel-charged immobilized metal affinity chromatography (IMAC) column (5 ml HisTrap FF Crude, GE Healthcare). The column was equilibrated with buffer containing 15 mM imidazole, 100 mM NaCl, 20 mM Tris-HCl, pH 7.4. The pH of the cell culture supernatant was adjusted to 8.0 using NaOH. The supernatant was run through the column at a flow of 5 ml per min. The column was washed with 20 column volumes of equilibration buffer at a flow of 5 ml per min. The protein was eluted with 500 mM imidazole, 100 mM NaCl, 20 mM Tris-HCl, pH 7.4 at a flow of 5 ml per min. The buffer was subsequently exchanged to 100 mM NaCl, 20 mM Tris-HCl, pH 7.4 by three iterative steps of 10-fold dilution and 10-fold concentration using a 10,000 MWCO centrifugal concentrator. The concentration was determined by measuring absorption at 280 nm (ε = 100,000). For the activation of recombinant FXII, 10 μg protein was diluted to a total volume of 10 μl 100 mM NaCl, 20 mM Tris-HCl, pH 7.4 and further diluted with 10 μl of 2-fold concentrated assay buffer (300 mM NaCl, 20 mM MgCl2, 2 mM CaCl2, 20 mM Tris-HCl, 0.02% (v/v) Triton-X100, pH 7.4). Dextran sulfate 500 kDa (DXS500) was added to a final concentration of 0.2 μg μl^−1 and incubated for 1 hour at 37 °C. 5 μg protein was analyzed by SDS-PAGE under reducing conditions.
Protease inhibition assays
The inhibitory activity of peptides was determined by measuring the residual protease activity with a fluorogenic substrate. The assay was performed in buffer containing 10 mM Tris-Cl, pH […]
1% (v/v) DMSO in a volume of 150 µl. FXIIa activity was measured with the fluorogenic substrate Boc-Gln-Gly-Arg-AMC (Bachem) at a final concentration of 50 µM. Mouse α-FXIIa (Molecular Innovations cat # MFXIIA) and human β-FXIIa (Molecular Innovations cat # HFXIIAB) were used at final concentrations of 0.4 nM. The reaction was pipetted as follows: 50 µl of bicyclic peptide in assay buffer were added to 50 µl of FXIIa in assay buffer and incubated for 10 minutes at 25°C before 50 µl of 150 µM fluorogenic substrate in assay buffer were added to measure the residual protease activity with an Infinite M200Pro fluorescence plate reader (excitation at 368 nm, emission at 467 nm; Tecan) for a period of 30 minutes with a read every minute at 25°C. The Tecan software i-control (version 1.1) was used for data analysis. Stock solutions of 1 mM bicyclic peptide were prepared by either dissolving the unpurified cyclization reaction with water or by dissolving purified and lyophilized peptide in water. The bicyclic peptides were serially diluted two-fold using assay buffer. Sigmoidal curves were fitted to the […]

[1] = Observation of toxicity or adverse effects in the animal studies; format: in vivo, mice, rabbits, pigs; details: all studies with the three species
[2] = Recombinant human FXII, individual plates, read-out: Residual activity (%)
[3] = read-out: Residual activity (%), Recombinant human FXII, individual plates

| Compound | remaining activity at 0.001 µM (recombinant human FXIIa; [2]) | remaining activity at 0.002 µM (recombinant human FXIIa; [2]) | remaining activity at 0.004 µM (recombinant human FXIIa; Recombinant human FXII, peptide 4 nM, individual plates, read-out: Residual activity (%)) | remaining activity at 0.008 µM (recombinant human FXIIa; Recombinant human FXII, peptide 8 nM, individual plates, read-out: Residual activity (%)) | remaining activity at […] (recombinant human FXIIa; Recombinant human FXII, peptide 16 nM, individual plates, read-out: Residual activity (%)) | remaining activity at […] (recombinant human FXIIa; Recombinant human FXII, peptide 32 nM, individual plates, read-out: Residual activity (%)) | remaining activity at 0.064 µM (recombinant human FXIIa; Recombinant human FXII, peptide 64 nM, individual plates, read-out: Residual activity (%)) | signs of toxicity or other adverse effects [1] | Ki (recombinant human FXIIa) | remaining activity at 62.5 pM (recombinant human FXIIa; read-out: Residual activity (%), Recombinant human FXII, peptide 0.0625 nM, individual plates) | remaining activity at 0.000125 µM (recombinant human FXIIa; read-out: Residual activity (%), Recombinant human FXII, peptide 0.125 nM, individual plates) | remaining activity at 0.0005 µM (recombinant human FXIIa; read-out: Residual activity (%), Recombinant human FXII, peptide 0.5 nM, individual plates) | remaining activity at 0.001 µM (recombinant human FXIIa; [3]) | remaining activity at 0.002 µM (recombinant human FXIIa; [3]) |
| --- | --- | --- | --- | --- | --- | --- | --- | --- | --- | --- | --- | --- | --- | --- |
| CC(C)C[C@@H]1NC(=O)[C@H](CCC(N)=O)NC(=O)[C@H](CCCNC(=N)N)NC(=O)[C@@H]2CSCCC(=O)N3CN(CN(C3)C(=O)CCSC[C@H](NC(=O)[C@@H](N)CCCNC(=N)N)C(=O)N[C@@H](Cc3ccccc3)C(=O)N[C@@H](CCCNC(=N)N)C(=O)N[C@@H](CC(C)C)C(=O)N3CCC[C@H]3C(=O)N2)C(=O)CCSC[C@@H](C(=O)N[C@@H](CCCNC(=N)N)C(N)=O)NC(=O)[C@H](CCCNC(=N)N)NC1=O [FXII618] | 87.7% | 78.5% | 65.2% | 47.5% | 30% | 16.5% | 6.9% | – | – | – | – | – | – | – |
| CC(C)C[C@@H]1NC(=O)[C@H](CCC(N)=O)NC(=O)[C@H](Cc2c[nH]cn2)NC(=O)[C@@H]2CSCCC(=O)N3CN(CN(C3)C(=O)CCSC[C@H](NC(=O)[C@@H](CO)NC(=O)[C@H](N)CCCNC(=N)N)C(=O)N[C@@H](Cc3ccc(F)cc3)C(=O)N[C@@H](CCCNC(=N)N)C(=O)N[C@@H](CC(C)C)C(=O)N3CCC[C@H]3C(=O)N2)C(=O)CCSC[C@@H](C(N)=O)NC(=O)C[C@H](CCCNC(=N)N)NC1=O [FXII900] (H-[dR][dS]C[Phe(4-F)]RLPCHQL[β3hR]C-NH2; linker 3-8-13 via TATA) | – | – | – | – | – | – | – | did not observe any signs of toxicity or other adverse effects | 510 pM | 93.8% | 87.9% | 61.1% | 35.5% | 10.4% |
